Results taken from patent publication US9273043B2, “TRPV1 antagonists including dihydroxy substituent and uses thereof” (Purdue Pharma L.P., priority 2011, dated 2016).
Marks after values point to notes of the source that are not given here.

Assays:
[1] = test system: MIA-induced osteoarthritis pain; assay: MIA-induced osteoarthritis model, grip force test; format: in vivo, rat; settings: for % GFR [mean]: rat MIA, grip force, oral 3 mg/kg
From the text: Osteoarthritis Pain: To assess the actions of a Compound of Formula (I) for the treatment or prevention of osteoarthritis pain, the rat monosodium iodo-acetate (MIA, i.e., sodium 2-iodoacetate) induced osteoarthritis model was used. Intra-articular injection of MIA causes joint degeneration characterized by osteolysis and swelling, with displacement of the patella, and reductions in bone mineral content and bone mineral density (Pomonis et al., “Development and pharmacological characterization of a rat model of osteoarthritis pain,” Pain 114: 339-346 (2005)). Under isoflurane anaesthesia, an intra-articular injection of 2 mg of MIA (Sigma-Aldrich) in 50 μl of saline was administered through the infrapatellar ligament of the knee joint of the right hind leg of the male, 6 week old Crl:CD(SD) rats. Control rats received an intra-articular injection of 50 μl of saline into the knee joint of the right hind leg. The left knee joint of all rats was untreated. Two weeks after MIA injection, rats were assessed for osteoarthritis pain related-behaviors immediately prior to and 1, 3, 5, 7, and 24 hours after oral drug-in-vehicle administration (for day 1) by determining their weight-bearing capabilities, via the weight bearing difference (WBD) test, and their gripping capabilities, via the grip force test, each as described below. Thus, in the assessment for osteoarthritis pain relief through gripping capability determinations, the 24 hour time point was the start of the next day when drug-in-vehicle was again orally administered (24 hours after the prior administration) for certain dosages. On days 2, 3, and 4, gripping capability response was determined 3 and 24 hours thereafter.
The grip force (GF) of the hind legs was assessed using a Animal Grip Strength System (San Diego Instruments, San Diego, Calif.). Rats were gently restrained and allowed to grasp the wire mesh strain gauge with their hind legs. The animals were then moved in a rostral-caudal direction until they let go of the gauge. The force (in g) at which the rat let go was recorded. Each animal was tested twice at approximately 3-10 minute intervals at each time point and the average of the two readings was used for the GF in data analysis.
Grip force, normalized to account for the weight of each animal, was expressed as “GF/B”, i.e., the ratio of GF to body weight, where GF is the grip force in grams and B is the body weight of the animal in kg. The “% GFR”, i.e., the percentage reversal of the (normalized) grip force impediment occurring post-MIA injection, was determined for each dosage at each time point using the following formula:
[formula] where (GF/B)Drug is the GF/B determined at each post-oral-administration time-point for each dose of each substance administered to MIA-injected animals, (GF/B)Vehicle is the GF/B determined at each post-oral-administration time-point for the vehicle control administered to MIA-injected animals, and (GF/B)Control Rat is the GF/B determined for control rats (saline-injected animals receiving orally-administered vehicle only). With the exception of the controls (i.e., celecoxib, vehicle) where the student's t-test was used, Dunnett's test was conducted for the % GFR. In either instance, values with p <0.05 were considered to be statistically significant.

[2] = test system: MIA-induced osteoarthritis pain; assay: MIA-induced osteoarthritis model, weight bearing difference (WBD) test; format: in vivo; settings: rat MIA, oral 3 mg/kg
From the text: Osteoarthritis Pain: To assess the actions of a Compound of Formula (I) for the treatment or prevention of osteoarthritis pain, the rat monosodium iodo-acetate (MIA, i.e., sodium 2-iodoacetate) induced osteoarthritis model was used. Intra-articular injection of MIA causes joint degeneration characterized by osteolysis and swelling, with displacement of the patella, and reductions in bone mineral content and bone mineral density (Pomonis et al., “Development and pharmacological characterization of a rat model of osteoarthritis pain,” Pain 114: 339-346 (2005)). Under isoflurane anaesthesia, an intra-articular injection of 2 mg of MIA (Sigma-Aldrich) in 50 μl of saline was administered through the infrapatellar ligament of the knee joint of the right hind leg of the male, 6 week old Crl:CD(SD) rats. Control rats received an intra-articular injection of 50 μl of saline into the knee joint of the right hind leg. The left knee joint of all rats was untreated. […] Thus, in the assessment for osteoarthritis pain relief through gripping capability determinations, the 24 hour time point was the start of the next day when drug-in-vehicle was again orally administered (24 hours after the prior administration) for certain dosages. […] Weight Bearing Difference Test as an Assessment of Osteoarthritis Related Pain: The weight bearing difference test provides an accepted assessment of the efficacy of clinically useful analgesic drugs with respect of osteoarthritis related pain (see Pomonis et al. (2005)). WBD was assessed using a Linton Incapacitance Tester (Linton Instrumentation, Norfolk, UK). Rats were placed on the apparatus so that they were standing on their hind legs, and allowed to acclimate to the apparatus. When stationary, the weight born on each leg was measured over a 3s period. Three readings were taken for each rat at each time point; the average of the three readings was used for data analysis. WBD was expressed as “% WR”, i.e., the percentage of weight born on the MIA-injected right hind leg, using the following formula: [formula] where WR is the weight on the right hind leg and WL is the weight on the left (untreated) hind leg. […] The “% WRR”, i.e., the percentage reversal of the % WR impediment occurring post-MIA injection, was determined for each dosage at each time point using the following formula: [formula] where (% WR)Post-Drug is the % WR determined at each post-oral-administration time-point for each dose of each administered substance, (% WR)Pre-Drug is the % WR determined pre-oral-administration of each administered substance, and (% WR)Control Rat is the % WR determined for control rats (receiving the saline injection into the right hind leg knee joint). With the exception of the controls (i.e., celecoxib, vehicle) where the student's t-test was used, Dunnett's test was conducted for the % WRR.

[3] = test system: neuropathic mechanical hyperalgesia after partial sciatic nerve ligation; assay: Seltzer model (partial sciatic nerve ligation) of neuropathic pain, paw withdrawal threshold; format: in vivo, rat; settings: for % Reversal [mean ± SEM]: rat
Method: In the Seltzer model, the partial sciatic nerve ligation model of neuropathic pain was used to produce neuropathic hyperalgesia in rats (Seltzer et al., “A Novel Behavioral Model of Neuropathic Pain Disorders Produced in Rats by Partial Sciatic Nerve Injury,” Pain 43:205-218 (1990)). Partial ligation of the left sciatic nerve was performed under isoflurane/O2 inhalation anaesthesia. Following induction of anesthesia, the left thigh of the male, 6-7 week old Jcl:SD rat was shaved. The sciatic nerve was exposed at high thigh level through a small incision and was carefully cleared of surrounding connective tissues at a site near the trocanther just distal to the point at which the posterior biceps semitendinosus nerve branches off of the common sciatic nerve. A 7-0 silk suture was inserted into the nerve with a ⅜ curved, reversed-cutting mini-needle and tightly ligated so that the dorsal ⅓ to ½ of the nerve thickness was held within the ligature. The wound was closed with a single muscle suture (4-0 nylon (Vicryl)) and vetbond tissue glue. The wound area was then dusted with antibiotic powder. Sham treatment involved an identical surgical procedure except that the sciatic nerve was not manipulated or ligated.
Following surgery, animals were weighed and placed on a warm pad until they recovered from anesthesia. Animals were then returned to their home cages until behavioral testing began. The animal was assessed for response to noxious mechanical stimuli by determining PWT for the rear paw of the animal, as described below, prior to surgery (baseline), then immediately prior to and 1, 3, 5, 7, and 24 hours after oral drug-in-vehicle administration (for day 1). Thus, the 24 hour time point was the start of the next day when drug-in-vehicle was again orally administered (24 hours after the prior administration). On days 2 and 3, PWT response was determined 1, 3, and 24 hours thereafter. Percentage reversal of neuropathic hyperalgesia at each of the specified times after administration was defined as: […]
Additionally, 10 mg/kg of pregabalin (Kemprotec, Ltd., Middlesbrough, UK), an anticonvulsant accepted for relief of particular neuropathic pain, in vehicle and the vehicle alone (0.5% weight/volume methylcellulose (400cP, Wako Pure Chemical Industries, Ltd.)/aqueous solution) were orally administered as controls. […] Ten rats that underwent partial ligation of the left sciatic nerve were used for each treatment group. Dunnett's test was conducted for the % reversal; values with p<0.05 were considered to be statistically significant.
Additionally, as a control the rats underwent sham surgery in which an identical surgical procedure was followed with regard to the right thigh but the sciatic nerve was neither manipulated nor ligated.
Response to Mechanical Stimuli as an Assessment of Mechanical Hyperalgesia: The paw pressure assay was used to assess mechanical hyperalgesia. […] Biochem. and Behavior 31:451-455 (1988). The maximum weight that could be applied to the hind paw was set at 250 g and the end point was taken as complete withdrawal of the paw. PWT was determined once for each rat at each time point and either only the affected (ipsilateral) paw was tested, or both the ipsilateral and contralateral (non-injured) paw were tested.

## Cc1ccc(-c2cc(C(F)(F)F)nn2-c2ccc(S(N)(=O)=O)cc2)cc1 [Celecoxib, celecoxib, reference compound]
[1]; 30.0% reversal (3 mg/kg, 3 h, day 1) as share of the 45.2% reversal of the product at 1 mg/kg
  maximum analgesic efficacy relative to the Example 10 product at 1 mg/kg: about 66.4%
[1]; 30.0% reversal (3 mg/kg, 3 h, day 1) as share of the 53.6% reversal of the product at 3 mg/kg
  maximum analgesic efficacy relative to the Example 10 product at 3 mg/kg: ~56.0%
[1]; 1 h (day 1)
  % GFR [mean]: 22.6^†† %
[1]; 3 h (day 1)
  % GFR [mean]: 30.0^†† %
[1]; 3 h (day 1), listed as celecoxib
  % GFR [mean]: 30.0%
[1]; 5 h (day 1)
  % GFR [mean]: 20.9^†† %
[1]; 7 h (day 1)
  % GFR [mean]: 3.6%
[1]; 24 h after day 1 dose (0 hrs day 2)
  % GFR [mean]: −3.6%
[2]; 1 h after administration
  % WRR [mean]: 10.2^† %
[2]; 1 h after administration, listed as celecoxib
  % WRR [mean]: 10.2%
[2]; 3 h after administration
  % WRR [mean]: 27.8^†† %
[2]; 3 h after administration, listed as celecoxib
  % WRR [mean]: 27.8%
[2]; 5 h after administration
  % WRR [mean]: 14.1^†† %
[2]; 5 h after administration, listed as celecoxib
  % WRR [mean]: 14.1%
[2]; 7 h after administration
  % WRR [mean]: 6.0^† %
[2]; 7 h after administration, listed as celecoxib
  % WRR [mean]: 6.0%
[2]; 24 h after administration
  % WRR [mean]: 2.0%

## CC(C)C[C@H](CN)CC(=O)O [pregabalin, reference compound]
[3]; 24.73% reversal (10 mg/kg, 3 h, day 1) as share of the 34.17% reversal of the product at 10 mg/kg
  maximum analgesic efficacy relative to the Example 10 product at 10 mg/kg: about 72%
[3]; pregabalin control 10 mg/kg oral once daily, 1 hours (day 2) after administration
  % Reversal [mean ± SEM]: 16.74 ± 4.23 %
[3]; pregabalin control 10 mg/kg oral once daily, 1 hours (day 3) after administration
  % Reversal [mean ± SEM]: 17.16 ± 6.64 %
[3]; pregabalin control 10 mg/kg oral once daily, 3 hours (day 2) after administration
  % Reversal [mean ± SEM]: 23.21 ± 2.30 %
[3]; pregabalin control 10 mg/kg oral once daily, 3 hours (day 3) after administration
  % Reversal [mean ± SEM]: 26.56 ± 4.95 %
[3]; pregabalin control 10 mg/kg oral once daily, 24 hours (0 hrs day 2) after administration
  % Reversal [mean ± SEM]: −2.84 ± 4.74%
[3]; pregabalin control 10 mg/kg oral once daily, 24 hours (0 hrs day 3) after administration
  % Reversal [mean ± SEM]: 1.70 ± 4.29%
[3]; pregabalin control 10 mg/kg oral once daily, 24 hours (0 hrs day 4) after administration
  % Reversal [mean ± SEM]: −3.67 ± 2.66%
[3]; pregabalin control 10 mg/kg oral, 1 hours (day 1) after administration
  % Reversal [mean ± SEM]: 24.05 ± 6.46 %
[3]; pregabalin control 10 mg/kg oral, 3 hours (day 1) after administration
  % Reversal [mean ± SEM]: 24.73 ± 4.12 %
[3]; pregabalin control 10 mg/kg oral, 5 hours (day 1) after administration
  % Reversal [mean ± SEM]: 19.97 ± 4.79 %
[3]; pregabalin control 10 mg/kg oral, 7 hours (day 1) after administration
  % Reversal [mean ± SEM]: 11.89 ± 3.16 %
[3]; rat Seltzer model, oral 10 mg/kg, 3 h after day 1 administration (maximum)
  % reversal of neuropathic hyperalgesia: 24.73%
